Patent US20230346961A1, “GLP-1 AND GIP RECEPTOR CO-AGONISTS” (Novo Nordisk A/S, priority 2020, published 2023)
pEC50: −log10 of the molar value. Starred links: 1 amine or outer side, 2 acyl side, 3 side chain; linkers in the order of their positions; H or OH if unused. Non-standard residues stand in square brackets, D forms with d. Residues, ends and D or L forms follow the SMILES beside them. Groups on a side chain read outwards from the residue. *: point of attachment. C18 diacid = O=C(O)CCCCCCCCCCCCCCCCC(=O)*; γGlu = O=C(O)[C@H](CCC(=O)[*:2])N[*:1]; εLys = N[C@@H](CCCCN[*:1])C(=O)[*:2]; Aib = CC(C)(N)C(=O)O

Experiments:
[1] = test system: diet-induced obese (DIO) mice; assay: Pharmacodynamic study in DIO mice: body weight and food intake; format: in vivo, C57BL/6J male mice; settings: for Absolute BW Day 14 / Change in BW Day 14 / Cumulative food intake Day 14: 14 days; for Cumulative food intake Day 14: n = 2-3
Experimental: The purpose of this example is to assess the in vivo effect of select compounds on pharmacodynamic parameters in diet-induced obese (DIO) mice. The animals were treated once daily via subcutaneous injection with a liquid formulation of the test compound to assess effects on body weight, foot intake, and glucose tolerance. For comparison, the known GLP-1R/GIPR co-agonist tirzepatide and a surrogate of the GLP-1R agonist semaglutide were used as references. The semaglutide surrogate has the same pharmacological properties of semaglutide but a slightly modified structure in which the γGlu element of the substituent has been changed from the L-isomer to the D-isomer.
C57BL/6J male mice were purchased from Jackson Laboratories at approximately 8 weeks of age. Mice were group housed and fed a high-fat, high-sugar diet from Research Diets (D12331). Mice were maintained on this diet for 12 weeks prior to initializing the pharmacology studies. Mice exceeding a measured body weight of 50 grams were considered diet-induced obese (DIO) and included in pharmacology studies. Mice were exposed to a controlled 12 h:12 h light:dark cycle at ambient room temperature (22° C.) with ab libitum access to food and water. Studies were approved by and performed according to the guidelines of the Institutional Animal Care and Use Committee of the University of Cincinnati.
Animals were dosed once daily, subcutaneously with either vehicle or test compound. All injections occurred during the middle of the light phase at a fixed volume of 2-5 microliters per gram body weight.
All compounds in the study were formulated in the following buffer: 50 mM phosphate; 70 mM sodium chloride; 0.05% Tween-80, pH 7.4. Dosing solutions were formulated in glass vials and stored at 2-8° C. Dosing solutions were brought to room temperature before dosing and returned to 2-8° C. after dosing.
DIO mice were distributed into groups (n=8 per group) such that statistical variations in the mean and standard deviations of fat mass and body weight were minimized between groups. The animals were grouped to receive treatment as follows: Vehicle, tirzepatide, semaglutide surrogate or a GLP-1/GIP receptor co-agonists as described herein, where vehicle is 50 mM phosphate, 70 mM sodium chloride; 0.05% Tween-80, pH 7.4. The test compounds were dissolved in the vehicle, to stock concentrations of 100 μM, then diluted 50-200 fold in the vehicle to achieve the desired dosing solution concentrations. Animals were dosed subcutaneously once daily in the morning for each day of treatment with dosing solution at a volume of 2-5 μL per gram of body weight as necessary to achieve the desired dose (eg 0.3 nmol/kg, 1.0 nmol/kg, or 3.0 nmol/kg).
Body weight (BW) and food intake were measured immediately prior to dosing each day. The percent change in body was calculated individually for each mouse based on initial body weight prior to the first injection.

[2] = test system: diet-induced obese (DIO) mice; assay: Pharmacodynamic study in DIO mice: IPGTT (intraperitoneal glucose tolerance test); format: in vivo, C57BL/6J male mice; settings: glucose 2 g/kg i.p., mean ± SEM; for iAUC, IPGTT Day 15: 14 days; for iAUC, IPGTT Day 31: 30 days
Experimental: On the day of the glucose tolerance test, animals were fasted for 4 h. Food was removed and animals were transferred to fresh cages. Animals had access to water but not to food. Tail blood glucose levels were measured, and mice were injected (t=0) with an intra-peritoneal (i.p.) glucose load of 2 g/kg (200 mg/ml glucose solution, dose volume 10 ml/kg). Tail blood glucose levels were measured at times 0, 15, 30, 60, 90, 120 minutes following the i.p. glucose load. Stratification of the animals during the IPGTT was such that for example two mice from group 1 are dosed followed by two mice from group 2, 3, 4, before the next two mice from group 1, 2, 3 etc. were handled. This was to allow for equal distribution of “time of day” throughout all groups.

human glucagon receptor = human glucagon receptor (Homo sapiens, UniProt P47871); assay: cell-based
Chain of human glucagon receptor (P47871 26-477): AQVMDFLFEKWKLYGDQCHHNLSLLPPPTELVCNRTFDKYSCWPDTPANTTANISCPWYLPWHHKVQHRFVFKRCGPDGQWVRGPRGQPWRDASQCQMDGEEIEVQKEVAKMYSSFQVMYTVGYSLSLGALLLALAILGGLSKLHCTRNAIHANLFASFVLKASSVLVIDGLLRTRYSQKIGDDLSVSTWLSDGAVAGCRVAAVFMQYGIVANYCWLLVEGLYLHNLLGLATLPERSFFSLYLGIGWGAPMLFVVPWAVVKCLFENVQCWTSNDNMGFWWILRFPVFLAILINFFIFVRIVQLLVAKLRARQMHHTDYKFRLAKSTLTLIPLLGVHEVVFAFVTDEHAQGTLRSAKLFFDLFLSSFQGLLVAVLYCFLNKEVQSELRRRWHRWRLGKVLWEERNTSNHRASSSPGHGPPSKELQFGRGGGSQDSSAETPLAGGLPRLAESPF

mouse GLP-1 receptor = target: T1, mouse GLP-1 receptor (Mus musculus, UniProt O35659)
T1 sequence (O35659 22-463): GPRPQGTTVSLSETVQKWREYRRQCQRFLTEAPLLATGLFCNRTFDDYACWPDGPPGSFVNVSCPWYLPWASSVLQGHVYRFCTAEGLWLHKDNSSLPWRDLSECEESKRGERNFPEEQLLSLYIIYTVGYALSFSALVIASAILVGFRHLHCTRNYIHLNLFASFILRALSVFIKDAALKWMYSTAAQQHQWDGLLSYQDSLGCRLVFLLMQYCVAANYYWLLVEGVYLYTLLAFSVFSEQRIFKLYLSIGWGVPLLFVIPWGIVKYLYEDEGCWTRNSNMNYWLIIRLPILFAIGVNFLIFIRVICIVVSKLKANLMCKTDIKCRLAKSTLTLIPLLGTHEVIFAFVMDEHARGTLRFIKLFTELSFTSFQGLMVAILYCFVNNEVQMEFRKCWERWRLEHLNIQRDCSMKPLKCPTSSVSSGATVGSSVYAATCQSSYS
Experimental: The in vitro functional potency is the measure of target receptor activation in a whole cell assay.
In vitro functional potency was determined by measuring the response of the target receptor in a reporter gene assay in individual cell lines. […] When the respective receptor is activated, it results in the production of cAMP, which in turn results in expression of the luciferase protein. When assay incubation is completed, luciferase substrate (luciferin) is added resulting in the enzymatic conversion of luciferin to oxyluciferin and producing bioluminescence. The luminescence is measured as the readout for the assay.
The cells lines used in these assays were BHK cells with BHKTS13 as a parent cell line. The cell lines were derived from a clone containing the CRE luciferase element and were established by further transfection with the respective receptor to obtain the relevant cell line.
The cells were cultured at 37° C. with 5% CO2 in Cell Culture Medium. They were aliquoted and stored in liquid nitrogen. The cells were kept in continuous culture and were seeded out the day before each assay.
GLP-1R and GcgR Cell Culture Medium consisted of DMEM medium with 10% FBS, 500 μg/mL G418, and 300 μg/mL hygromycin. GIPR Cell Culture Medium consisted of DMEM medium with 10% FBS, 400 μg/mL G418, and 300 μg/mL hygromycin. Assay Buffer consisted of DMEM w/o phenol red, 10 mM Hepes, 1×Glutamax, 1% ovalbumin, and 0.1% Pluronic F-68 with the addition of HSA at twice the final assay concentration.
• 1) Cells were plated at 5000 cells/well and incubated overnight in the assay plate. • 2) Cells were washed once in DPBS. • 3) Stocks of the test compounds and reference compounds in concentrations ranging from 100-300 μM were diluted 1:150 in Assay Buffer. Compounds were then diluted 1:10 in column 1 of a 96 deep well dilution plate and then carried across the row creating a 3.5 fold, 12 point dilution curve. • 4) Assay Buffer (50 μl aliquot) with or without HSA was added to each well in the assay plate. • 5) A 50 μl aliquot of compound or blank was transferred from the dilution plate to the assay plate containing the Assay Buffer with or without HSA. • 6) The assay plate was incubated for 3 h in a 5% CO2 incubator at 37° C. 7) The cells were washed once with DPBS. • 8) A 100 μl aliquot of DPBS was added to each well of the assay plate. • 9) A 100 μl aliquot of steadylite plus reagent (light sensitive) was added to each well of the assay plate. • 10) Each assay plate was covered with aluminum foil to protect it from light and shaken at 250 RPM for 30 min at room temperature. • 11) Each assay plate was read in a microtiter plate reader.
The data from the microtiter plate reader was first regressed in an Excel in order to calculate the x-axis, log scale concentrations based on the individual test compound's stock concentration and the dilutions of the assay. […] The software performs a non-linear regression (log(agonist) vs response). A minimum of two replicates was measured for each sample. The reported values are averages of the replicates.

[3] = target: T2, mouse glucagon-like peptide 1 receptor (mouse, UniProt O35659 22-463); assay: cell-based or functional assay
T2 sequence (looked up): T1 sequence (O35659 22-463)

[4] = DIO mice, 0.3 nmol/kg s.c. once daily, mean ± SEM
[5] = DIO mice, 1.0 nmol/kg s.c. once daily, mean ± SEM
[6] = DIO mice, 3.0 nmol/kg s.c. once daily, mean ± SEM
[7] = DIO mice, 0.3 nmol/kg s.c. once daily, 30 days, mean ± SEM
[8] = DIO mice, 1.0 nmol/kg s.c. once daily, 30 days, mean ± SEM
[9] = DIO mice, 3.0 nmol/kg s.c. once daily, 10 days, mean ± SEM, n = 8
[10] = DIO mice, 3.0 nmol/kg s.c. once daily, 30 days, mean ± SEM

Tirzepatide: known GLP-1R/GIPR co-agonist used as reference [reference compound]
Absolute BW Day 0 ([1]; DIO mice, 0.3 nmol/kg group, baseline Day 0 (14-day study), mean ± SEM): 64.1 ± 1.7 grams | Absolute BW Day 14 [1, 4]: 58.2 ± 1.9 grams | Change in BW Day 14 [1, 4]: −9.4 ± 1.2% | Cumulative food intake Day 14 [1, 4]: 32.3 ± 1.9 grams | Absolute BW Day 0 ([1]; DIO mice, 1.0 nmol/kg group, baseline Day 0 (14-day study), mean ± SEM): 63.5 ± 1.6 grams | Absolute BW Day 14 [1, 5]: 49.8 ± 1.8 grams | Change in BW Day 14 [1, 5]: −21.0 ± 1.2% | Cumulative food intake Day 14 [1, 5]: 18.4 ± 0.7 grams | Absolute BW Day 0 ([1]; DIO mice, 3.0 nmol/kg group, baseline Day 0 (14-day study), mean ± SEM): 63.6 ± 2.5 grams | Absolute BW Day 14 [1, 6]: 45.1 ± 2.1 grams | Change in BW Day 14 [1, 6]: −29.0 ± 2.4% | Cumulative food intake Day 14 [1, 6]: 16.4 ± 2.3 grams | iAUC, IPGTT Day 15 ([2]; 0.3 nmol/kg s.c. once daily): 13005 ± 2962 mg·min/dL | iAUC, IPGTT Day 15 ([2]; 1.0 nmol/kg s.c. once daily): 10365 ± 3585 mg·min/dL | iAUC, IPGTT Day 15 ([2]; 3.0 nmol/kg s.c. once daily): 8974 ± 1804 mg·min/dL

CC[C@H](C)[C@H](NC(=O)[C@H](CO)NC(=O)[C@H](Cc1ccc(O)cc1)NC(=O)[C@H](CC(=O)O)NC(=O)[C@H](CO)NC(=O)[C@@H](NC(=O)[C@H](Cc1ccccc1)NC(=O)[C@@H](NC(=O)CNC(=O)[C@H](CCC(=O)O)NC(=O)C(C)(C)NC(=O)[C@@H](N)Cc1ccc(O)cc1)[C@@H](C)O)[C@@H](C)O)C(=O)N[C@@H](Cc1ccc(O)cc1)C(=O)N[C@@H](CC(C)C)C(=O)N[C@@H](CC(=O)O)C(=O)N[C@@H](CCCCN)C(=O)N[C@@H](CCC(N)=O)C(=O)N[C@@H](C)C(=O)N[C@@H](C)C(=O)NC(C)(C)C(=O)N[C@@H](CCCCNC(=O)[C@@H](N)CCCCNC(=O)[C@@H](N)CCCCNC(=O)CC[C@H](NC(=O)CCCCCCCCCCCCCCCCC(=O)O)C(=O)O)C(=O)N[C@@H](Cc1ccccc1)C(=O)N[C@H](C(=O)N[C@@H](CC(N)=O)C(=O)N[C@@H](Cc1c[nH]c2ccccc12)C(=O)N[C@@H](CC(C)C)C(=O)N[C@@H](CC(C)C)C(=O)N[C@@H](C)C(=O)NCC(=O)NCC(=O)N1CCC[C@H]1C(=O)N[C@@H](CO)C(=O)N[C@@H](CO)C(=O)NCC(=O)N[C@@H](C)C(=O)N1CCC[C@H]1C(=O)N1CCC[C@H]1C(=O)N1CCC[C@H]1C(=O)N[C@@H](CO)C(N)=O)C(C)C [Compound 9] (H-Y[Aib]EGTFTSDYSIYLDKQAA[Aib]K([εLys-εLys-γGlu-C18 diacid])FVNWLLAGGPSSGAPPPS-NH2; N-terminus assumed)
Absolute BW Day 0 ([1]; DIO mice, 0.3 nmol/kg group, baseline Day 0 (30-day study), mean ± SEM): 66.5 ± 2.6 grams | Absolute BW Day 31 [1, 7]: 66.9 ± 3.2 grams | Change in BW Day 31 [1, 7]: 3.4 ± 1.7% | Cumulative food intake Day 31 ([1]; DIO mice, 0.3 nmol/kg s.c. once daily, 30 days, mean ± SEM, n = 2): 87.4 ± 5.9 grams | Performance compared with semaglutide surrogate in all parameters (in words) ([1]; DIO mice, 1.0 nmol/kg and 3.0 nmol/kg doses, 30 days): superior performance to semaglutide surrogate | Absolute BW Day 0 ([1]; DIO mice, 1.0 nmol/kg group, baseline Day 0 (30-day study), mean ± SEM): 70.0 ± 1.9 grams | Absolute BW Day 31 [1, 8]: 50.9 ± 2.2 grams | Change in BW Day 31 [1, 8]: −23.9 ± 2.6% | Cumulative food intake Day 31 ([1]; DIO mice, 1.0 nmol/kg s.c. once daily, 30 days, mean ± SEM, n = 2): 60.4 ± 4.5 grams | Absolute BW Day 0 ([1]; DIO mice, 3.0 nmol/kg group, baseline Day 0 (10-day study), mean ± SEM, n = 8): 63.8 ± 0.8 grams | Absolute BW Day 0 ([1]; DIO mice, 3.0 nmol/kg group, baseline Day 0 (30-day study), mean ± SEM): 65.8 ± 1.4 grams | Cumulative food intake Day 10 ([1]; DIO mice, 3.0 nmol/kg s.c. once daily, 10 days, mean ± SEM, n = 2): 8.3 ± 1.0 grams | Absolute BW Day 10 [1, 9]: 51.3 ± 0.9 grams | Change in BW Day 10 [1, 9]: −19.6 ± 0.7% | Absolute BW Day 31 [1, 10]: 40.0 ± 2.4 grams | Change in BW Day 31 [1, 10]: −39.1 ± 3.8% | Cumulative food intake Day 31 ([1]; DIO mice, 3.0 nmol/kg s.c. once daily, 30 days, mean ± SEM, n = 2): 46.4 ± 6.6 grams | Response on food intake, body weight and glucose tolerance (in words) ([1]; DIO mice, 0.3, 1.0 or 3.0 nmol/kg s.c. daily for 30 days): dose-dependent response | iAUC, IPGTT Day 31 ([2]; 0.3 nmol/kg s.c. once daily): 14979 ± 3423 mg·min/dL | iAUC, IPGTT Day 31 ([2]; 1.0 nmol/kg s.c. once daily): 7714 ± 1722 mg·min/dL | iAUC, IPGTT Day 31 ([2]; 3.0 nmol/kg s.c. once daily): 4073 ± 1764 mg·min/dL | pEC50 (human glucagon receptor): < 8.00 | pEC50 (mouse GLP-1 receptor): 11.60

Human GLP-1(7-37) (from UniProt P01275 98-128) (ligand)
mGLP-1R, CRE Luc EC50 [3]: 3.5 pM
